The supplement of paper PMC10307832

Experiments:
Assay in all cases: relative viability (nuclei count vs DMSO), 5 days (fraction); higher = more cells survive
[1] = compound: CC1=C(C(=NN1)C)CC2=C(C3=C(S2)N(C(=O)N(C3=O)C)CC(C)C)C(=O)N4C[C@@H](CO4)O + O=C(c1cc(Cc2n[nH]c(=O)c3ccccc23)ccc1F)N1CCN(C(=O)C2CC2)CC1 [Olaparib] (partner 8 µM)
In short: (§1)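 Lung cancer cell lines were pin-tool dosed in 1536-well plates on the day after seeding, with either a lone drug or a fixed anchor-drug dose plus five library-drug doses (not always all listed) in √10 steps. Nuclei were counted on 4× images after 5 days. Relative viability is the ratio of treated-well to vehicle-well nuclei counts, with each value a median of duplicate plates.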

IDH-C35 + Palbociclib = compound: Cc1ccccc1C(C(=O)NC1CCCCC1)N(C(=O)Cn1ccnc1C)c1cccc(F)c1 [IDH-C35] + CC(=O)c1c(C)c2cnc(Nc3ccc(N4CCNCC4)cn3)nc2n(C2CCCC2)c1=O [Palbociclib] (partner 0.5 µM)
In short: as §1

IDH-C35 + Navitoclax = compound: Cc1ccccc1C(C(=O)NC1CCCCC1)N(C(=O)Cn1ccnc1C)c1cccc(F)c1 [IDH-C35] + CC1(C)CCC(c2ccc(Cl)cc2)=C(CN2CCN(c3ccc(C(=O)NS(=O)(=O)c4ccc(N[C@H](CCN5CCOCC5)CSc5ccccc5)c(S(=O)(=O)C(F)(F)F)c4)cc3)CC2)C1 [Navitoclax] (partner 0.5 µM)
In short: as §1

IDH-C35 + Lapatinib = compound: Cc1ccccc1C(C(=O)NC1CCCCC1)N(C(=O)Cn1ccnc1C)c1cccc(F)c1 [IDH-C35] + CS(=O)(=O)CCNCc1ccc(-c2ccc3ncnc(Nc4ccc(OCc5cccc(F)c5)c(Cl)c4)c3c2)o1 [Lapatinib] (partner 2 µM)
In short: as §1

With UMC-11 as the cell line, how does the relative viability ([1]; first compound 0.0025 µM) read?
The relative viability was 0.386.

What about the relative viability ([1]; first compound 0.007906 µM) of the same cell line?
Its relative viability is 0.358.

And the relative viability ([1]; first compound 0.025 µM)?
The relative viability was 0.383.

And the relative viability ([1]; first compound 0.07906 µM)?
The relative viability was 0.456.

And the relative viability ([1]; first compound 0.25 µM)?
Its relative viability is 0.957.

What about the relative viability (IDH-C35 + Palbociclib; first compound 0.08 µM) of the same cell line?
Its relative viability is 0.335.

And the relative viability (IDH-C35 + Palbociclib; first compound 0.253 µM)?
Its relative viability is 0.32.

And the relative viability (IDH-C35 + Palbociclib; first compound 0.8 µM)?
The relative viability was 0.341.

What about the relative viability (IDH-C35 + Palbociclib; first compound 2.53 µM) of the same cell line?
Its relative viability is 0.299.

And the relative viability (IDH-C35 + Palbociclib; first compound 8 µM)?
Its relative viability is 0.337.

And the relative viability (IDH-C35 + Navitoclax; first compound 0.08 µM)?
Its relative viability is 0.298.

And the relative viability (IDH-C35 + Navitoclax; first compound 0.253 µM)?
The relative viability was 0.347.

And the relative viability (IDH-C35 + Navitoclax; first compound 0.8 µM)?
The relative viability was 0.323.

And the relative viability (IDH-C35 + Navitoclax; first compound 2.53 µM)?
The relative viability was 0.32.

And the relative viability (IDH-C35 + Navitoclax; first compound 8 µM)?
Its relative viability is 0.344.

What about the relative viability (IDH-C35 + Lapatinib; first compound 0.08 µM) of the same cell line?
The relative viability was 1.01.

What about the relative viability (IDH-C35 + Lapatinib; first compound 0.253 µM) of the same cell line?
Its relative viability is 0.976.

And the relative viability (IDH-C35 + Lapatinib; first compound 0.8 µM)?
The relative viability was 0.98.

And the relative viability (IDH-C35 + Lapatinib; first compound 2.53 µM)?
Its relative viability is 0.96.

And the relative viability (IDH-C35 + Lapatinib; first compound 8 µM)?
The relative viability was 1.09.
